We go through one compound from patent US20240277705A1, “DOSAGE REGIMENS FOR ECUBECTEDIN” (PHARMA MAR S.A., priority 2021, published 2024).

The subject of one experiment is WM-266-4 (Melanoma). The experiment is described as follows: MTT cell viability assay, WM-266-4. The format is cell-based. To be noted: Homo sapiens. As for the experimental part:
Cell viability assay: To assess the antiproliferative activity of the compounds a colorimetric assay based on 3-(4,5-Dimethylthiazol-2-yl)-2,5-diphenyltetrazolium bromide (MTT) reduction was used. […] An appropriate number of cells, to reach a final cell density in the assay ranging from 5,000 to 15,000 cells per well depending on the cell line, were seeded in 96-well plates and allowed to stand in culture medium for 24 h at 37° C. under 5% CO2 and 98% humidity. Then, compounds or DMSO in culture medium were added to reach a final volume of […] and the intended compound concentration in a range covering 10 serial 2/5 dilutions starting from […] (10 μg/mL for doxorubicin) in 1% (v/v) DMSO. At this point a set of “time zero control plates” treated with 1% (v/v) DMSO were processed with MTT as described below. The rest of the plates were incubated during 72 h under the aforementioned environmental conditions. […] Culture medium was then removed and 100 μL of neat DMSO added to each well to dissolve the formazan product into a coloured solution whose absorbance at 540 nm was finally measured in a PolarStar Omega microplate multilabel reader (BMG Labtech, Ortenberg, Germany). […]
GI50 values were determined as described in Example 1, but using the following human cancer cell line: • WM-266-4 (ATCC@ CRL-1676) (Melanoma) […]
A general note: Tetrazolium dyes change colour on reduction, which living cells bring about.

Experiment [1] deals with RXF 393 (renal carcinoma). The experiment is described as follows: MTT cell viability assay, RXF 393. The format is cell-based. To be noted: Homo sapiens, RXF 393, 72 h; read-out: GI50, M (geometric mean, N = 3). The source says:
(§1) Cell lines and cell culture: The following human cancer cell lines have been used in this example (the collection code and the tissue of origin are shown in brackets): • RXF 393 (NCI) (renal carcinoma) • Caki-1 (ATCC HTB-46) (kidney clear cell carcinoma)
(§2) Cell lines were obtained from the American Type Culture Collection (ATCC) or the National Cancer Institute (NCI). Cells were maintained in the appropriate culture medium, namely: • RPMI for RXF 393 • McCoy's 5A for Caki-1
(§3) All media were supplemented with 10% FBS, 2 mM L-Glutamine and 100 units/mL of penicillin-streptomycin.
(§4) Cell viability assay: To assess the antiproliferative activity of the compounds a colorimetric assay based on 3-(4,5-Dimethylthiazol-2-yl)-2,5-diphenyltetrazolium bromide (MTT) reduction was used. […] Culture medium was then removed and 100 μL of neat DMSO added to each well to dissolve the formazan product into a coloured solution whose absorbance at 540 nm was finally measured in a PolarStar Omega microplate multilabel reader (BMG Labtech, Ortenberg, Germany). […]
(§5) GI50 is finally used as reference value. […] To define a significant (ca. 70%) confidence interval for the geometric mean, its value must be multiplied and divided by the corresponding geometric standard deviation (GSD) which was also calculated. […]

For another experiment, the system named is MEXF 1341L (melanoma). Nature of the experiment: Propidium iodide monolayer cell proliferation assay, MEXF 1341L. Conditions: MEXL 1341L. It counts as cell-based, human. How it is done:
(§6) Cell proliferation assay: A modified propidium iodide (PI) based monolayer assay was used to assess the anti-cancer activity of the compounds (Dengler WA, Schulte J, Berger DP, Mertelsmann R, Fiebig HH, Anti-Cancer Drugs 1995, 6: 522-532). Briefly, cells were harvested from exponential phase cultures, counted and plated in 96 well flat-bottom microtiter plates at a cell density of 4,000 to 30,000 cells/well dependent on the cell line's growth rate. After a 24 h recovery period, to allow the cells to resume exponential growth, 10 μl of culture medium (4 control wells/cell line/plate) or of culture medium with test compounds were added. PM14 was applied at ten concentrations in half-log increments in duplicates up to 3.16 pM and treatment continued for four days. […] After an incubation period of 1-2 hours at room temperature, fluorescence (FU) was measured using the Enspire Multimode Plate Reader (excitation A=530 nm, emission A=620 nm) to quantify the amount of attached viable cells.
(§7) IC50 and IC70 values were calculated by 4 parameter non-linear curve fit using Oncotest Warehouse Software. […]
(§8) IC50 values were determined as described in Example 2, but using the following human cancer cell lines: • MEXF 276L (melanoma) • MEXF 462NL (melanoma) • MEXF 1341L (melanoma)

Experiment [2] relates to Caki-1 (kidney clear cell carcinoma). The experiment is described as follows: MTT cell viability assay, Caki-1. The format is cell-based. Conditions: Homo sapiens, CAKI-1, 72 h; read-out: GI50, M (geometric mean, N = 3).
Excerpt: as §1, §2, §3, §4, §5

The subject of a further experiment is MEXF 276L (melanoma). The experiment is described as follows: Propidium iodide monolayer cell proliferation assay, MEXF 276L. The format is cell-based, human. How it is done: as §6, §7, §8

In the case of `COc1c(C)cc2c(c1O)[C@@H]1[C@@H]3[C@@H]4SC[C@]5(N[C@H](CO)Cc6c5[nH]c5ccccc65)C(=O)OC[C@@H](c5c6c(c(C)c(OC(C)=O)c54)OCO6)N3[C@@H](O)[C@H](C2)N1C` [PM14, ECUBECTEDIN], the results for the GI50 (in the experiment on WM-266-4 (Melanoma); in experiment [1]; in experiment [2]) were 1.94 nM, 0.621 nM and 0.611 nM, respectively. Besides, the half-inhibitory concentration (IC50) in the experiment on MEXF 1341L (melanoma) (Homo sapiens, MEXF 1341L, read-out: IC50, μM (geometric mean)) stood at 0.0004 µM; in the experiment with MEXF 276L (melanoma) (Homo sapiens, MEXF276L, read-out: IC50, μM (geometric mean)) it was 0.0002 µM. Also, the “IC70, μM (geometric mean)” value stood at 0.0006 µM in the experiment on MEXF 1341L (melanoma) and 0.0003 µM with MEXF 276L (melanoma).

Usually GI50 stands for the concentration at which growth is held to half of that of the control. A word on the IC50: it is the point on the concentration scale where inhibition reaches its midpoint.
